Test results as given in US20220135580A1, “HYDROXYPH[…], METHODS AND USES THEREOF” (priority 2019, published 2022).
“Also recorded” adds a separate entry of the source.

What was measured:
zebrafish larvae = test: general toxicity on zebrafish larvae (death, malformations); assay type: in vivo, Zebrafish (Danio rerio); settings: same concentration ranges as lipid reducing activity
Excerpt: (§1) 13^2(S)-hydroxy-pheophytin a (hpa) is a known compound, and belongs to the photosystem II complex of the chloroplast. The second is a novel compound, 13^2(S)-hydroxy-pheofarnesin a (hfa), which is structurally related to hpa.

[1] = system: differentiated 3T3-L1 spheroids; test: viability (calcein AM) in differentiated 3T3-L1 spheroids; assay type: cell-based, murine; settings: for reduction of viability of spheroids: not significant; for toxicity by calcein AM staining: 3T3L1 spheroids
Procedure: (§2) FIG. 2: Evaluation of lipid content (Nile red) and viability (calcein AM) in differentiated 3T3-L1 spheroids after exposure to compound 1 (hpa) and compound 2 (hfa) over 48 h. […] Statistical difference to the solvent control were analysed by One-Way ANOVA, followed by a Dunnett's multiple comparison post-test (***p-value<0.001, **p-value <0.01, *p-value <0.05). Quantification of free glycerol (lipolysis) on the medium where 3T3-L1 organoids were exposed to compound 1 (hpa) and compound 2 (hfa) over 48 h. […] Kolmogorov-Smirnov test was used to test normality of the data, followed by a Dunnett's multiple comparison post-test (***p-value <0.001, **p-value <0.01, *p-value <0.05).
(§3) In an embodiment, the bioactivity of hpa and hfa was confirmed in a further assay, using the murine pre-adipocyte cell line 3T3L1. […] In an embodiment, the activity in differentiated 3T3L1 spheroids was confirmed and analysis of lipolysis performed.

[2] = system: neutral lipids in zebrafish larvae; test: zebrafish Nile red fat metabolism assay (lipid reducing activity); assay type: in vivo, Zebrafish (Danio rerio); settings: for IC50 / lipid reducing activity / Nile red staining: zebrafish larvae, exposure for 48 h; for IC50: Nile red; for fluorescence intensity of Nile red: all tested concentrations (156 ng/mL to 10 μg/mL)
Procedure: FIG. 1.A: Representative images of the zebrafish Nile red fat metabolism assay. Nile red fluorescence signal indicates neutral lipids around the yolk sac and stomach/intestine. […] A solvent control (0.1% dimethyl sulfoxide, DMSO) and positive control group (50 μM resveratrol, REV) was included.
FIG. 1.B: Quantification of lipid-reducing activity in the zebrafish Nile Red fat metabolism assay after exposure for 48 h. Values are expressed as mean fluorescence intensity (MFI) relative to the DMSO group and are derived from 6 to 8 individual larvae per treatment group. The data are represented as box-whisker plots (5 to 95 percentiles). Asterisks highlight significant differences compared to the DMSO group (****p<0.0001; ***p<0.001; **p<0.01; *p<0.05).
Zebrafish (Danio rerio) has become an attractive model organism for biomedical research. In the study of complex metabolic disorders like obesity, the use of more complex in vivo model systems as small whole animal models can bring significant advantages. For drug discovery, zebrafish assays can be used complementary to rodent assays, with easier handling, high predictive validity and cost-efficiency while compatible with high-throughput screening. […] The zebrafish Nile red fat metabolism assay analyses the capacity of compounds to reduce neutral lipids in zebrafish larvae in vivo.
as §1
In an embodiment, chlorophyll a and chlorophyll b were tested for lipid reducing activity on the zebrafish Nile red fat metabolism assay.

[3] = system: differentiated 3T3-L1 spheroids; test: lipid content (Nile red) in differentiated 3T3-L1 spheroids; assay type: cell-based, murine; settings: for lipid accumulation: 48 h exposure, spheroids after 7 d differentiation; for lipid content of the spheroids: 3T3L1 cells grown and differentiated as spheroids
Procedure: as §2, §3

cancer cells = settings: Cheng et al., 2001; cited from earlier work
[4] = system: differentiated 3T3-L1 spheroids; test: lipolysis: free glycerol in the medium of 3T3-L1 spheroids; assay type: cell-based, murine; settings: 3T3-L1 spheroids exposed over 48 h
Procedure: as §2, §3

## 13^2-(S)-hydroxy-pheophytin a [hpa]
Zebrafish larvae
  general toxicity (death, malformations): No general toxicity was observed
[1]; 15 μg/mL, 48 h
  reduction of viability of spheroids: 20%
[1]; 30 μg/mL, 48 h
  reduction of viability of spheroids: 20%
[1]
  toxicity by calcein AM staining: No toxicity was observed
[2]
  IC50: 8.9 ± 0.4 µM
  lipid reducing activity / Nile red staining: show a decrease in the Nile red staining
[3]; 7.5 μg/mL
  lipid accumulation: significant reduction of lipid accumulation
[3]; 15 μg/mL
  lipid accumulation: significant reduction of lipid accumulation
[3]; 30 μg/mL
  lipid accumulation: significant reduction of lipid accumulation
[3]
  lipid content of the spheroids: reduced significantly the lipid content
Cancer cells
  cytotoxicity on cancer cells: 8.8 to 22 µg/mL
[4]
  lipolytic activity / free glycerol content in the medium: did not alter lipolytic activities
[4]; listed as compound 1
  lipolytic activity / free glycerol content in the medium: No significant alterations

## C=Cc1c(C)c2cc3nc(c4c5[n-]c(cc6nc(cc1[n-]2)C(C)=C6CC)c(C)c5C(=O)[C@@H]4C(=O)OC)[C@@H](CCC(=O)OC/C=C(\C)CCC[C@H](C)CCC[C@H](C)CCCC(C)C)[C@@H]3C.[Mg+2] [chlorophyll a]
[2]
  fluorescence intensity of Nile red: did not reduce the fluorescence intensity
  lipid reducing activity / Nile red staining: not present; also recorded: did not demonstrate any lipid reducing activity

## 13^2-(S)-hydroxy-pheofarnesin a [hfa]
Zebrafish larvae
  general toxicity (death, malformations): No general toxicity was observed
[1]
  toxicity by calcein AM staining: No toxicity was observed
[1]; any concentration, 48 h
  reduction in viability of spheroids: did not cause any reduction in viability
[2]
  IC50: 15.5 ± 1.3 µM
  lipid reducing activity / Nile red staining: show a decrease in the Nile red staining
[3]; 30 μg/mL
  lipid accumulation: significant reduction of lipid accumulation
[3]
  lipid content of the spheroids: reduced significantly the lipid content
[4]
  lipolytic activity / free glycerol content in the medium: did not alter lipolytic activities
[4]; listed as compound 2
  lipolytic activity / free glycerol content in the medium: No significant alterations

## C=Cc1c(C)c2cc3nc(c4c5[n-]c(cc6nc(cc1[n-]2)C(C=O)=C6CC)c(C)c5C(=O)[C@@H]4C(=O)OC)[C@@H](CCC(=O)OC/C=C(\C)CCC[C@H](C)CCC[C@H](C)CCCC(C)C)[C@@H]3C.[Mg+2] [chlorophyll b]
[2]
  fluorescence intensity of Nile red: did not reduce the fluorescence intensity
  lipid reducing activity / Nile red staining: not present; also recorded: did not demonstrate any lipid reducing activity
